According to paper PMC11406361, “Several orphan solute carriers functionally identified as organic cation transporters: Substrates specificity compared with known cation transporters” (The Journal of Biological Chemistry, 2024):
Read-outs that look alike come from different tables or passages of the source. Peptide text beside a SMILES is read from it.

Molecular target: SLC35G3 (Homo sapiens, UniProt Q8N808)
Assay: Uptake ratio screen, SLC35G3-overexpressing HEK293 over empty vector cells
Type: cell-based
Parameters: by amplifying the entire gene-of-interest within the HEK293 genome via a long-range PCR
[1] = 2.5 μM substrate, 2 min, HEK293

Chain of SLC35G3 (Q8N808 whole entry): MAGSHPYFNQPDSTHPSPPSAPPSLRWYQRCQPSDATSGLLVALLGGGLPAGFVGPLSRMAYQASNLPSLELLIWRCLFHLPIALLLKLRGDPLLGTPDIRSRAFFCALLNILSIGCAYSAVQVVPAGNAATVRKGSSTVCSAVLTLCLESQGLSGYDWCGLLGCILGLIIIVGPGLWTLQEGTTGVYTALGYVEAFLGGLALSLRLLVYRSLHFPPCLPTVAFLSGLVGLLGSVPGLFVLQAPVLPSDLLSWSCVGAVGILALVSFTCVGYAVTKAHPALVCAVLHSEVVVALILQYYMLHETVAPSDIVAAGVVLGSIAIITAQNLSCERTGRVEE

Row | Compound | Uptake data for SLC35G3, mean value (fold-increase over empty vector control) [1] | Uptake data for SLC35G3, mean value (fold-increase over empty vector control)
1 | N[C@@H]1C[C@H]1c1ccccc1 (racemic) [Tranylcypromine] | 2.56 | –
2 | CCN1CCCC1CNC(=O)c1cc(S(=O)(=O)CC)c(N)cc1OC (stereo not drawn) [Amisulpride] | 1.53 | –
3 | CN(C)CCC=C1c2ccccc2CCc2ccccc21 [Amitriptyline] | 1.47 | –
4 | O=C1CCc2ccc(OCCCCN3CCN(c4cccc(Cl)c4Cl)CC3)cc2N1 [Aripiprazole] | 1.22 | –
5 | COC(=O)[C@H](Cc1ccccc1)NC(=O)[C@@H](N)CC(=O)O [Aspartame] (H-Asp-Phe-OMe) | 0.92 | –
6 | CNCC[C@@H](Oc1ccccc1C)c1ccccc1 [Atomoxetine] | 1.26 | –
7 | C[N+](C)(C)CC(=O)O [Betaine] | 0.84 | –
8 | OC(CCN1CCCCC1)(c1ccccc1)C1CC2C=CC1C2 (stereo not drawn) [Biperiden] | 1.50 | –
9 | CC(C)NCC(O)COc1ccc(COCCOC(C)C)cc1 (stereo not drawn) [Bisoprolol] | 1.24 | –
10 | CCCCN1CCCCC1C(=O)Nc1c(C)cccc1C (stereo not drawn) [Bupivacaine] | 2.44 | –
11 | CC(NC(C)(C)C)C(=O)c1cccc(Cl)c1 (stereo not drawn) [Bupropion] | 1.29 | –
12 | O=C1CC2(CCCC2)CC(=O)N1CCCCN1CCN(c2ncccn2)CC1 [Buspirone] | 1.72 | –
13 | C=CCN1C[C@H](C(=O)N(CCCN(C)C)C(=O)NCC)C[C@@H]2c3cccc4[nH]cc(c34)C[C@H]21 [Cabergoline] | 1.49 | –
14 | C[C@H](N)[C@@H](O)c1ccccc1 [Cathine ((+)-Norpseudoephedrine), (+)-Norpseudoephedrine] | – | 1.21
15 | CN1CCN(C2=Nc3cc(Cl)ccc3Nc3ccccc32)CC1 [Clozapine] | 1.44 | –
16 | N[C@@H]1CON=C1O [Cycloserine (D-), Cycloserine] | 0.93 | –
17 | N[C@@H]1CON=C1O [Cycloserine (L-), Cycloserine] | 1.11 | –
18 | CNCCCN1c2ccccc2CCc2ccccc21 [Desipramine] | 1.31 | –
19 | CC(CCc1ccc(O)cc1)NCCc1ccc(O)c(O)c1 (stereo not drawn) [Dobutamine] | 1.58 | –
20 | C[C@H]1c2cccc(O)c2C(=O)C2=C(O)[C@]3(O)C(=O)C(C(N)=O)=C(O)[C@@H](N(C)C)[C@@H]3[C@@H](O)[C@@H]21 [Doxycycline] | 1.34 | –
21 | CN(C)CCOC(C)(c1ccccc1)c1ccccn1 (stereo not drawn) [Doxylamine] | 1.10 | –
22 | CNCC[C@H](Oc1cccc2ccccc12)c1cccs1 [Duloxetine] | – | 1.26
23 | CN[C@@H](C)[C@H](O)c1ccccc1 [Ephedrine] | 1.59 | –
24 | CC[C@@H](CO)NCCN[C@@H](CC)CO [Ethambutol] | 0.99 | –

Row | Compound | Uptake data for SLC35G3, mean value (fold-increase over empty vector control) [1] | Uptake data for SLC35G3, mean value (fold-increase over empty vector control)
25 | CC(Cc1ccc(O)cc1)NCC(O)c1cc(O)cc(O)c1 (stereo not drawn) [Fenoterol] | 1.19 | –
26 | CN[C@@H]1CCc2[nH]c3ccc(C(N)=O)cc3c2C1 [Frovatriptan (R-), Frovatriptan] | 1.06 | –
27 | NCC1(CC(=O)O)CCCCC1 [Gabapentin] | 0.90 | –
28 | COc1ccc2c3c1O[C@H]1C[C@@H](O)C=C[C@@]31CCN(C)C2 [Galantamine] | 1.57 | –
29 | O=C(CCCN1CCC(O)(c2ccc(Cl)cc2)CC1)c1ccc(F)cc1 [Haloperidol] | 1.47 | –
30 | COc1ccc2c3c1O[C@H]1C(=O)CC[C@H]4[C@@H](C2)N(C)CC[C@]314 [Hydrocodone] | 1.71 | –
31 | CN(C)CCCN1c2ccccc2CCc2ccccc21 [Imipramine] | 1.40 | –
32 | CNC1(c2ccccc2Cl)CCCCC1=O (stereo not drawn) [Ketamine] | – | 1.28
33 | C[C@H]1COc2c(N3CCN(C)CC3)c(F)cc3c(=O)c(C(=O)O)cn1c23 [Levofloxacin] | 1.05 | –
34 | COc1ccc2c(c1)N(C[C@H](C)CN(C)C)c1ccccc1S2 [Levomepromazine] | 1.30 | –
35 | NC1Cc2cc3c(cc2C1)OCO3 [MDAI, 5,6-Methylenedioxy-2-aminoindane] | 1.71 | –
36 | CC12CC3CC(C)(C1)CC(N)(C3)C2 [Memantine] | 1.19 | –
37 | Cc1cccc(C)c1NC(=O)C1CCCCN1C (stereo not drawn) [Mepivacaine] | 2.30 | –
38 | C[C@@H](O)[C@H]1C(=O)N2C(C(=O)O)=C(S[C@@H]3CN[C@H](C(=O)N(C)C)C3)[C@H](C)[C@H]12 [Meropenem] | 1.27 | –
39 | COc1cc(CCN)cc(OC)c1OC [Mescaline] | – | 1.34
40 | C[N+]1(CC2CC2)CC[C@]23c4c5ccc(O)c4O[C@H]2C(=O)CC[C@@]3(O)[C@H]1C5 (stereo partly drawn) [Methylnaltrexon] | 1.36 | –
41 | CCN(CC)CCNC(=O)c1cc(Cl)c(N)cc1OC [Metoclopramide] | 1.44 | –
42 | COCCc1ccc(OCC(O)CNC(C)C)cc1 (stereo not drawn) [Metoprolol] | 1.52 | –
43 | COc1ccc(OC)c(C(O)CNC(=O)CN)c1 (stereo not drawn) [Midodrine] | 1.33 | –
44 | CCN(CC)C(=O)C1(c2ccccc2)CC1CN (stereo not drawn) [Milnacipran] | 1.31 | –
45 | COc1c(N2C[C@@H]3CCCN[C@@H]3C2)c(F)cc2c(=O)c(C(=O)O)cn(C3CC3)c12 [Moxifloxacin] | 1.34 | –
46 | CNCC1CCCCC1(O)c1cccc(OC)c1 (stereo not drawn) [N-Desmethyltramadol] | 1.38 | –
47 | CNCC(c1ccc(OC)cc1)C1(O)CCCCC1 (stereo not drawn) [N-Desmethylvenlafaxine] | 1.20 | –
48 | C=C1CC[C@@]2(O)[C@H]3Cc4ccc(O)c5c4[C@@]2(CCN3CC2CC2)[C@H]1O5 [Nalmefen] | 1.99 | –
